Experimental data published in patent US20240423945A1, “USE OF FERROPTOSIS INHIBITOR IN PREPARATION OF DRUG FOR TREATING GASTRITIS” (CHILDREN'S HOSPITAL OF CHONGQING MEDICAL UNIVERSITY, priority 2022, published 2024).

Columns and labels:
[1] = test system: ferroptosis marker proteins (COX2, GPX4, FTH1, and TFR) in the GES-1-134 cell; assay: WB of ferroptosis marker proteins in GES-1-134 cell treated with ferrostatin-1; assay type: cell-based, Human; settings: ferrostatin-1 0, 5, 10 μM, FIG. 9A
Protocol: (§1) 4. The expression of GRIM-19 was analyzed by WB, and a specific process was as follows: • (1) The cells were subjected to lysis with an RIPA lysis buffer (Beyotime) on ice for 30 min or more. • (2) A resulting lysate was centrifuged at 12,000 rpm for 10 min, and a resulting supernatant was collected. • (3) A corresponding volume of a sodium dodecyl sulfate-polyacrylamide gel electrophoresis (SDS-PAGE) protein loading buffer was added, and a resulting mixture was incubated in a metal bath at 100° C. for 10 min. • (4) SDS-PAGE was conducted. • (5) Blocking was conducted at room temperature for 30 min. • (6) A primary antibody was added, and a resulting mixture was incubated overnight at 4° C. on a shaker. • (7) A membrane was washed with TBST three times for 10 min each time. • (8) A secondary antibody was added, and a resulting mixture was incubated for 1 h at room temperature on a shaker. • (9) A membrane was washed with TBST three times for 10 min each time. • (10) Development was conducted.
(§2) WB was used to analyze the expression of ferroptosis markers in the GES-1-134 cell and the GRIM-19^−/− mouse gastric mucosal tissue that each were intervened with ferrostatin-1.

[2] = test system: SPEM marker proteins TFF2, Mist1, Clusterin-1, HE4, and MUC6 in the GRIM-19−/− mouse gastric mucosal tissue; assay: WB of SPEM markers in GRIM-19−/− mouse gastric mucosal tissue intervened with ferrostatin-1; assay type: in vivo; settings: intraperitoneally injected, compared with the PBS injection control, FIG. 11A
Protocol: as §1
WB was used to detect the expression of SPEM markers in the gastric mucosal tissue of the GRIM-19^−/− mouse intraperitoneally injected with the ferroptosis inhibitor ferrostatin-1.

[3] = test system: ferroptosis marker proteins (COX2, GPX4, FTH1, and TFR) in the GRIM-19−/− mouse gastric mucosal tissue; assay: WB of ferroptosis marker proteins in GRIM-19−/− mouse gastric mucosal tissue intervened with ferrostatin-1; assay type: in vivo; settings: ferrostatin-1 injected, FIG. 9B
Protocol: as §1, §2

[4] = test system: GIF, GSII, and Mist1 positive cells in GRIM-19−/− mouse gastric mucosal tissue; assay: GIF/GSII/Mist1 immunofluorescence colocalization analysis of SPEM markers in GRIM-19−/− mouse gastric mucosal tissue; assay type: in vivo; settings: intraperitoneally injected, compared with the PBS group, FIG. 11B
Protocol: After a mouse was intraperitoneally injected with the ferroptosis inhibitor ferrostatin-1, an immunofluorescence technique was used to analyze the GIF, GSII, and Mist1 positive colocalization expression of SPEM markers in a gastric mucosal tissue, and a specific process was as follows: • (1) embedding a tissue with OCT; • (2) sectioning; • (3) fixing with 4% PFA; • (4) blocking with serum; • (5) incubating with a primary antibody overnight at 4° C.; • (6) rinsing with PBS 3 times; • (7) incubating with a secondary antibody at room temperature for 2 h; • (8) rinsing with PBS 3 times; • (9) counter-staining with DAPI for 10 min; • (10) rinsing with PBS 3 times; and • (11) mounting with an anti-fluorescence attenuation agent.

[5] = test system: inflammatory factors in the GRIM-19−/− mouse gastric mucosal tissue; assay: WB of inflammatory factors in GRIM-19−/− mouse gastric mucosal tissue intervened with ferrostatin-1; assay type: in vivo
Protocol: as §1
(§3) WB was used to detect the expression of inflammatory factors in the GES-1-134 cell and GRIM-19^−/− mouse after being intervened with the ferroptosis inhibitor ferrostatin-1.

[6] = test system: inflammatory factors IL-6, TNF-α, VEGF, GM-CSF, IL-1β, and IL-33 in the GES-1-134 cell; assay: WB of inflammatory factors in GES-1-134 cell intervened with ferrostatin-1; assay type: cell-based, Human; settings: GES-1-134 cell in vitro, FIG. 10A
Protocol: as §1, §3

[7] = test system: GES-1-134 cell (GRIM-19-knockout human gastric mucosal epithelial cell GES-1); assay: CCK-8 proliferation viability of GES-1-134 cell intervened with ferrostatin-1; assay type: cell-based; settings: CCK-8, FIG. 8
Protocol: A CCK-8 kit (Solarbio) was used to analyze the proliferation viability changes of GES-1-NC and GES-1-134 cells, and a specific process was as follows: • (1) The cells were inoculated into a 96-well plate at 5,000 cells/well. • (2) The cells were cultivated at 37° C. and 5% CO2 for 24 h, 48 h, and 72 h. • (3) 10 μL of a CCK-8 solution was added to each well during detection. • (4) The plate was incubated in an incubator for 1 h. • (5) A microplate reader was used to determine the absorbance at 450 nm.
A CCK-8 kit was used to analyze a change of proliferation viability of the GES-1-134 cell intervened with the ferroptosis inhibitor ferrostatin-1. After the GES-1-134 cell was intervened with the ferroptosis inhibitor ferrostatin-1, the proliferation ability was increased and the viability was recovered.

[8] = compared with the PBS injection control, WB, FIG. 10B

Q: What does the source list for `CCOC(=O)c1ccc(NC2CCCCC2)c(N)c1` [ferrostatin-1]?
A: expression level of COX-2 [1]: decreased; expression level of FTH1 [1]: increased; expression level of GPX4 [1]: increased; expression level of TFR [1]: decreased; expression of Clusterin-1 [2]: significantly weakened; expression of HE4 [2]: significantly weakened; expression of MUC6 [2]: significantly weakened; expression of Mist1 [2]: significantly weakened; expression of TFF2 [2]: significantly weakened; expression level of COX-2 [3]: showed the same change trend; expression level of FTH1 [3]: showed the same change trend; expression level of GPX4 [3]: showed the same change trend; expression level of TFR [3]: showed the same change trend; number of GIF+/GSII+ double-positive cells [4]: decreased; number of GIF+/GSII+/Mist1+ triple-positive cells [4]: decreased; number of GIF+/Mist1+ double-positive cells [4]: decreased; number of positive cells (GIF+, GSII+, Mist1+) [4]: decreased significantly; expression level of IL-6 [5, 8]: significantly reduced; expression level of TNF-α [5, 8]: significantly reduced; expression of GM-CSF ([5]; in vivo injection): effectively reduce; expression of IL-1β ([5]; in vivo injection): effectively reduce; expression of IL-33 ([5]; in vivo injection): effectively reduce; expression of VEGF ([5]; in vivo injection): effectively reduce; expression level of GM-CSF [6]: significantly reduced; expression level of IL-1β [6]: significantly reduced; expression level of IL-6 [6]: significantly reduced; expression level of IL-33 [6]: significantly reduced; expression level of TNF-α [6]: significantly reduced; expression level of VEGF [6]: significantly reduced; proliferation ability [7]: increased; viability [7]: recovered
